Experimental data: patent publication US11638707B2, “Substituted amino triazoles useful as chitinase inhibitors” (Molecure S.A., priority 2019, dated 2023)
Counter-ions that a name gives are not always drawn.

How the values were obtained:
recombinant human CHIT1 = recombinant human CHIT1 (Homo sapiens (Human), UniProt Q13231); experiment: Human CHIT1 activity assay; assay type: biochemical; conditions: recombinant human CHIT1, citrate buffer pH 5.2, 37° C., 60 minutes; read-out: hCHIT1, IC50
Procedure, shortened: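 Recombinant human CHIT1 hydrolysed 4-methylumbelliferyl β-D-N,N′,N″-triacetylchitotriose in citrate buffer, pH 5.2, for 60 minutes at 37° C in the dark with shaking. Released 4MU was read by fluorescence at 460 nm under basic pH; IC50 values were calculated from dilution series.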

recombinant human AMCase = recombinant human AMCase (Homo sapiens (Human), UniProt Q9BZP6); experiment: Human AMCase activity assay; assay type: biochemical; conditions: citrate buffer pH 5.2, 37° C., 60 minutes, read-out: hAMCase, IC50
Procedure, shortened: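 Recombinant hAMCase hydrolysed 4-methylumbelliferyl β-D-N,N′-diacetylchitobioside in citrate buffer pH 5.2, run 60 min at 37 °C in the dark with shaking. Released 4MU fluorescence was read at 460 nm under basic pH, and IC50 values were fitted from the compound dilutions.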

hERG channel = hERG channel (Homo sapiens (Human), UniProt Q12809); experiment: Human ERG channel binding assay (fluorescence polarization); conditions: Table 1; tracer displacement, 4 h at room temperature
Procedure, shortened: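 Serially diluted compounds were incubated with a hERG-containing membrane fraction and a high-affinity red-shifted fluorescent hERG ligand. Displacement of the tracer was read by fluorescence polarization, and IC50 values were derived from the concentration-response curves.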

recombinant human CHIT1, sequence (Q13231 22-466): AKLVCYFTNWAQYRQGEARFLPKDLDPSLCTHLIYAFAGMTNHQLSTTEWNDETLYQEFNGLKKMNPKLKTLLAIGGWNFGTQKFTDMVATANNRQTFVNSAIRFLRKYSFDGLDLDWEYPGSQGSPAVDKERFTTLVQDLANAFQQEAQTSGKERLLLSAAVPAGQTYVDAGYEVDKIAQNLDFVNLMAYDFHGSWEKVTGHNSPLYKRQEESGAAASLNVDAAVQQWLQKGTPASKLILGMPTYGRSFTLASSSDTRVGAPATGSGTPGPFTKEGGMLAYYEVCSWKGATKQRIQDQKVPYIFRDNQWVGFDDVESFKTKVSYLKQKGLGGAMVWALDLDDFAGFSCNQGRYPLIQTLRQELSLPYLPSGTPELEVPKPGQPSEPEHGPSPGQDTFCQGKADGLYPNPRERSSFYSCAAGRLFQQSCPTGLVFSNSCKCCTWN
recombinant human AMCase, sequence (Q9BZP6 22-476): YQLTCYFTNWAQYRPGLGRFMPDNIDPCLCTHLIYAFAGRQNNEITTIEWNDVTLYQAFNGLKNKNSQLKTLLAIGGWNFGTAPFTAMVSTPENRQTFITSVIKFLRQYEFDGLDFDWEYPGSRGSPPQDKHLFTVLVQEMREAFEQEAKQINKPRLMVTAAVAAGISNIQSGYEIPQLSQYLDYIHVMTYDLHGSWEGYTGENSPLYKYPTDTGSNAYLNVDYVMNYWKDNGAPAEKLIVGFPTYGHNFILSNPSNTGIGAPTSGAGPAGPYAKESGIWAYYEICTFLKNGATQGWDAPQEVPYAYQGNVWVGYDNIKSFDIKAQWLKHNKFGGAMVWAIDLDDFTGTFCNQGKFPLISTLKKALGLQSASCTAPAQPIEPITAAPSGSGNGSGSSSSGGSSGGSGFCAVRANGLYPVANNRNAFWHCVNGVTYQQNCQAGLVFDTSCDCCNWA
hERG channel, sequence (Q12809 whole entry): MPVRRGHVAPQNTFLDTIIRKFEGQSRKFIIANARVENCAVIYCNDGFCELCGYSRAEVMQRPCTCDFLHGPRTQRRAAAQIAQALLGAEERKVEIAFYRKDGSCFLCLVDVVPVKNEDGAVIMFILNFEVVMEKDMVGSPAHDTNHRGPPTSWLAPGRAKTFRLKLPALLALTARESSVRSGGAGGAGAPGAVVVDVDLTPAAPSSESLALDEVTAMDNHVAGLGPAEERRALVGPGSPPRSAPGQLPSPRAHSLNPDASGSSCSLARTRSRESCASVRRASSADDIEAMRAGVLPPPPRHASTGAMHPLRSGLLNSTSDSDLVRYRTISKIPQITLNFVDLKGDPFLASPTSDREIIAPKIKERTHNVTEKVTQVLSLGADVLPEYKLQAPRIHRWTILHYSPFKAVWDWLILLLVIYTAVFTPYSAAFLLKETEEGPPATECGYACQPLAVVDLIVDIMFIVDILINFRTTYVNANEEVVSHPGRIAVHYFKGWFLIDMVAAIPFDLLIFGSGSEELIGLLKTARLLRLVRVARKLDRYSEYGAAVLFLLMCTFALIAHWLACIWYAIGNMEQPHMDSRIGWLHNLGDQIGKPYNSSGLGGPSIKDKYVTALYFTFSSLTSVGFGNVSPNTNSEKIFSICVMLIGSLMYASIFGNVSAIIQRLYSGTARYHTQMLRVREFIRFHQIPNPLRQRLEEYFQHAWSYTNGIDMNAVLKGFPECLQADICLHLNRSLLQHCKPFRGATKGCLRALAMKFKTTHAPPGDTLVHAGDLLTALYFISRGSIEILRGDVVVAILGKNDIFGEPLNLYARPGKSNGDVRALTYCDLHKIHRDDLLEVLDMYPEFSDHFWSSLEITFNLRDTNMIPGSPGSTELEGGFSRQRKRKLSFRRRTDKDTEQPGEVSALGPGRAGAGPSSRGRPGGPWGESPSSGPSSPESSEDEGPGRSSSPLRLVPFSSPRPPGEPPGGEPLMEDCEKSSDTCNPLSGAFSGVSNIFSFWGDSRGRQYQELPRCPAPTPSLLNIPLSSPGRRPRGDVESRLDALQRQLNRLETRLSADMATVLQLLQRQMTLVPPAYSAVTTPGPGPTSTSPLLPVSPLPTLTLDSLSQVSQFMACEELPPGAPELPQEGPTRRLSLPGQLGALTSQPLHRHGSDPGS

Row | IC50 (recombinant human CHIT1) [µM] | IC50 (recombinant human AMCase) [µM] | Structure (SMILES) | IC50 (hERG channel) [µM]
1 | 0.1 to 1 | < 0.1 | CC(C)(C)NC(=O)[C@H]1CN(C2CCN(c3nnc(N)[nH]3)CC2)[C@@H](Cc2ccc(Cl)cc2)CO1 [Example 66, (2R,5S)-4-(1-(5-amino-4H-1,2,4-triazol-3-yl)piperidin-4-yl)-N-(tert-butyl)-5-(4-chlorobenzyl)morpholine-2-carboxamide 2,2,2-trifluoroacetate] | > 100
2 | < 0.1 | < 0.1 | C[C@@H](O)[C@H]1CN(C2CCN(c3nnc(N)[nH]3)CC2)[C@@H](Cc2ccc(Cl)cc2)CO1 [Example 67, (R)-1-((2R,5S)-4-(1-(5-amino-4H-1,2,4-triazol-3-yl)piperidin-4-yl)-5-(4-chlorobenzyl)morpholin-2-yl)ethanol 2,2,2-trifluoroacetate] | > 100
3 | < 0.1 | < 0.1 | CCC(O)(CC)[C@H]1CN(C2CCN(c3nnc(N)[nH]3)CC2)[C@@H](Cc2ccc(Cl)cc2)CO1 [Example 68, 3-((2R,5S)-4-(1-(5-amino-4H-1,2,4-triazol-3-yl)piperidin-4-yl)-5-(4-chlorobenzyl)-morpholin-2-yl)pentan-3-ol 2,2,2-trifluoroacetate] | 25 to 100
4 | < 0.1 | < 0.1 | CC(C)CNC(=O)[C@H]1CN(C2CCN(c3nnc(N)[nH]3)CC2)[C@@H](Cc2ccc(Cl)cc2)CO1 [Example 69, (2R,5S)-4-(1-(5-amino-4H-1,2,4-triazol-3-yl)piperidin-4-yl)-5-(4-chlorobenzyl)-N-isobutylmorpholine-2-carboxamide 2,2,2-trifluoroacetate] | 25 to 100
5 | 0.1 to 1 | < 0.1 | Nc1nnc(N2CCC(N3C[C@@H]4COCCN4C[C@@H]3Cc3ccc(Cl)cc3)CC2)[nH]1 [Example 73, 5-(4-((7S,9aR)-7-(4-chlorobenzyl)hexahydropyrazino[2,1-c][1,4]oxazin-8(1H)-yl)piperidin-1-yl)-4H-1,2,4-triazol-3-amine hydrochloride] | 1 to 10
6 | < 0.1 | < 0.1 | C[C@H]1CN(C2CCN(c3nnc(N)[nH]3)CC2)[C@@H](Cc2ccc(Br)cc2)CO1 [Example 75, 5-(4-((2S,5S)-5-(4-bromobenzyl)-2-methylmorpholino)piperidin-1-yl)-4H-1,2,4-triazol-3-amine 2,2,2-trifluoroacetate] | 1 to 10
7 | < 0.1 | < 0.1 | Nc1nnc(N2CCC(N3C[C@H](CF)OC[C@@H]3Cc3ccc(Br)cc3)CC2)[nH]1 [Example 76, 5-(4-((2R,5S)-5-(4-bromobenzyl)-2-(fluoromethyl)morpholino)piperidin-1-yl)-4H-1,2,4-triazol-3-amine 2,2,2-trifluoroacetate] | > 100
8 | < 0.1 | < 0.1 | Nc1nnc(N2CCC(N3C[C@@H]4CC(F)(F)CN4C[C@@H]3Cc3ccc(C(F)(F)F)cc3)CC2)[nH]1 [Example 78, 5-(4-((3S,8aS)-7,7-difluoro-3-(4-(trifluoromethyl)benzyl)hexahydropyrrolo[1,2-a]pyrazin-2(1H)-yl)piperidin-1-yl)-4H-1,2,4-triazol-3-amine 2,2,2-trifluoroacetate] | 10 to 25
